# Measured values: patent publication US11370774B2, “Substituted benzofuran, benzopyrrole, benzothiophene, and structurally related complement inhibitors” (BioCryst Pharmaceuticals, Inc., priority 2018, dated 2022)
# Target: Factor D (Homo sapiens (Human), UniProt P00746)
# Assay: Factor D esterolytic assay (Z-Lys-SBzl substrate, DTNB, 405 nm)
# Format: biochemical
# Settings: Z-Lys-SBzl 1.29 mM, pH 7.5, 10% DMSO, tested a minimum of three times, read-out: Measured Ki (IC50) Value for Compounds: IC50
# In short: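 Human Factor D ([…]) with 1.29 mM Z-Lys-SBzl in 100 mM HEPES, 500 mM NaCl, pH 7.5, 10% DMSO; substrate added immediately or after room-temperature preincubation. Released thiol reacted with DTNB, rate followed at 405 nm for 600 sec, 690 nm background subtracted. IC50 from percent inhibition versus uninhibited rate, n≥3.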
# Factor D, sequence (P00746 26-253): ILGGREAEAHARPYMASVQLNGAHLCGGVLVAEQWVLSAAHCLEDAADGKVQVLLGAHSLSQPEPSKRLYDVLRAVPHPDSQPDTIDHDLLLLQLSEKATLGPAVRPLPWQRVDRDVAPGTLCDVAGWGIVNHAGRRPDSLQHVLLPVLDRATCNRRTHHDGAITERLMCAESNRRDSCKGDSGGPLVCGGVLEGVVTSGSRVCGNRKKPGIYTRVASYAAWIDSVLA
row,IC50,SMILES
1,< 1000 nM,"CC(C)Cc1cc2cc(COc3ccccc3CC(=O)O)cc(-c3ccnc(CN)c3F)c2o1 [Compound 220g, 2-(2-((7-(2-(aminomethyl)-3-fluoropyridin-4-yl)-2-isobutylbenzofuran-5-yl)methoxy)phenyl)acetic acid]"
2,< 1000 nM,"NCc1cc(-c2cc(COc3ccccc3CC(=O)O)cc3sccc23)ccn1 [Compound 221c, 2-(2-((4-(2-(aminomethyl)pyridin-4-yl)benzo[b]thiophen-6-yl)methoxy)phenyl)acetic acid]"
3,< 1000 nM,"CC(=O)NC(C(=O)O)c1ccccc1OCc1cc(-c2cccc(CN)c2)c2occc2c1 (stereo not drawn) [Compound 222f, 2-acetamido-2-(2-((7-(3-(aminomethyl)phenyl)benzofuran-5-yl)methoxy)phenyl)acetic acid]"
4,< 1000 nM,"NCc1cccc(-c2cc(COc3ccccc3C(NC(=O)C3CC3)C(=O)O)cc3ccoc23)c1 (stereo not drawn) [Compound 223e, 2-(2-((7-(3-(aminomethyl)phenyl)benzofuran-5-yl)methoxy)phenyl)-2-(cyclopropanecarboxamido)acetic acid]"
5,< 1000 nM,"CC(=O)Nc1ccc(CC(=O)O)c(OCc2cc(-c3cccc(CN)c3)c3occc3c2)c1 [Compound 224c, 2-(4-acetamido-2-((7-(3-(aminomethyl)phenyl)benzofuran-5-yl)methoxy)phenyl)acetic acid]"
6,< 1000 nM,"NCc1cccc(-c2cc(COc3ccccc3CC(=O)O)cc3oc(Cl)cc23)c1 [Compound 225h, 2-(2-((4-(3-(aminomethyl)phenyl)-2-chlorobenzofuran-6-yl)methoxy)phenyl)acetic acid]"
7,< 1000 nM,"NCc1cc(-c2cc(COc3ccccc3CC(=O)O)cc3cc(C(F)(F)F)oc23)ccn1 [Compound 226c, 2-(2-((7-(2-(aminomethyl)pyridin-4-yl)-2-(trifluoromethyl)benzofuran-5-yl)methoxy)phenyl)acetic acid]"
8,< 1000 nM,"NCc1cccc(-c2cc(COc3ccccc3CC(=O)O)cc3cc(F)oc23)c1 [Compound 227e, 2-(2-((7-(3-(aminomethyl)phenyl)-2-fluorobenzofuran-5-yl)methoxy)phenyl)acetic acid]"
9,< 1000 nM,"CC(C)S(=O)(=O)n1ccc2c(-c3cccc(CN)c3)cc(COc3ccccc3CC(=O)O)cc21 [Compound 228e, 2-(2-((4-(3-(aminomethyl)phenyl)-1-(isopropylsulfonyl)-1H-indol-6-yl)methoxy)phenyl)acetic acid]"
10,< 1000 nM,"CC(C)S(=O)(=O)n1ccc2c(-c3cccc(CN)c3F)cc(COc3ccccc3CC(=O)O)cc21 [Compound 229b, 2-(2-((4-(3-(aminomethyl)-2-fluorophenyl)-1-(isopropylsulfonyl)-1H-indol-6-yl)methoxy)phenyl)acetic acid]"
11,1000 to 10000 nM,"NCc1cccc(-c2cc(COc3cccnc3CC(=O)O)cc3ccoc23)c1 [Compound 230e, 2-(3-((7-(3-(aminomethyl)phenyl)benzofuran-5-yl)methoxy)pyridin-2-yl)acetic acid]"
12,< 1000 nM,"NCc1cccc(-c2cc(COc3ncccc3CC(=O)O)cc3ccoc23)c1 [Compound 231c, 2-(2-((7-(3-(aminomethyl)phenyl)benzofuran-5-yl)methoxy)pyridin-3-yl)acetic acid]"
13,< 1000 nM,"NCc1cc(-c2cc(COc3ccccc3CC(=O)O)cc3c2ccn3S(=O)(=O)C2CC2)ccn1 [Compound 232c, 2-(2-((4-(2-(aminomethyl)pyridin-4-yl)-1-(cyclopropylsulfonyl)-1H-indol-6-yl)methoxy)phenyl)acetic acid]"
14,< 1000 nM,"CC(C)S(=O)(=O)n1ccc2c(-c3ccnc(CN)c3)cc(COc3ccccc3CC(=O)O)cc21 [Compound 233c, 2-(2-((4-(2-(aminomethyl)pyridin-4-yl)-1-(isopropylsulfonyl)-1H-indol-6-yl)methoxy)phenyl)acetic acid]"
15,< 1000 nM,"NCc1cccc(-c2cc(COc3ccccc3C(NC(=O)[C@@H]3C[C@H]3c3ccccc3)C(=O)O)cc3ccoc23)c1 (stereo partly drawn) [Compound 234f, 2-(2-((7-(3-(aminomethyl)phenyl)benzofuran-5-yl)methoxy)phenyl)-2-((1R,2R)-2-phenylcyclopropanecarboxamido)acetic acid]"
16,< 1000 nM,"NCc1cccc(-c2cc(COc3ccccc3CC(=O)O)cc3cc(C(F)(F)F)oc23)c1F [Compound 235b, 2-(2-((7-(3-(aminomethyl)-2-fluorophenyl)-2-(trifluoromethyl)benzofuran-5-yl)methoxy)phenyl)acetic acid]"
17,< 1000 nM,"NCc1cccc(-c2cc(COc3cc(CN)ccc3CC(=O)O)cc3ccoc23)c1 [Compound 236d, 2-(4-(aminomethyl)-2-((7-(3-(aminomethyl)phenyl)benzofuran-5-yl)methoxy)phenyl)acetic acid]"
18,< 1000 nM,"N#Cc1ccc(CC(=O)O)c(OCc2cc(-c3cccc(CN)c3)c3occc3c2)c1 [Compound 237b, 2-(2-((7-(3-(aminomethyl)phenyl)benzofuran-5-yl)methoxy)-4-cyanophenyl)acetic acid]"
19,< 1000 nM,"NCc1cccc(-c2cc(COc3cc(C(N)=O)ccc3CC(=O)O)cc3ccoc23)c1 [Compound 238c, 2-(2-((7-(3-(aminomethyl)phenyl)benzofuran-5-yl)methoxy)-4-carbamoylphenyl)acetic acid]"
20,< 1000 nM,"N#Cc1ccc(OCc2cc(-c3cccc(CN)c3)c3occc3c2)c(CC(=O)O)c1 [Compound 239c, 2-(2-((7-(3-(aminomethyl)phenyl)benzofuran-5-yl)methoxy)-5-cyanophenyl)acetic acid]"
21,< 1000 nM,"NCc1nccc(-c2cc(COc3ccccc3CC(=O)O)cc3cc(C(F)(F)F)oc23)c1F [Compound 240d, 2-(2-((7-(2-(aminomethyl)-3-fluoropyridin-4-yl)-2-(trifluoromethyl)benzofuran-5-yl)methoxy)phenyl)acetic acid]"
22,< 1000 nM,"NCc1cccc(-c2cc(C(=O)Nc3ccccc3CC(=O)O)c(F)c3ccoc23)c1 [Compound 241c, 2-(2-(7-(3-(aminomethyl)phenyl)-4-fluorobenzofuran-5-carboxamido)phenyl)acetic acid]"
23,> 10000 nM,"NCc1ccccc1-c1cc(COc2ccccc2CC(=O)O)cc2ccoc12 [Compound 243d, 2-(2-((7-(2-(aminomethyl)phenyl)benzofuran-5-yl)methoxy)phenyl)acetic acid]"
24,1000 to 10000 nM,"NCc1cccc(-c2cc(COc3ccc(C(N)=O)cc3CC(=O)O)cc3ccoc23)c1 [Compound 244c, 2-(2-((7-(3-(aminomethyl)phenyl)benzofuran-5-yl)methoxy)-5-carbamoylphenyl)acetic acid]"
25,< 1000 nM,"NCc1cccc(-c2cc(COc3ccccc3CC(=O)O)cc3c(N)noc23)c1F [Compound 245g, 2-(2-((3-amino-7-(3-(aminomethyl)-2-fluorophenyl)benzo[d]isoxazol-5-yl)methoxy)phenyl)acetic acid]"
26,< 1000 nM,"NCc1cccc(-c2cc(C(=O)Nc3ccccc3CC(=O)O)c(F)c3ccoc23)c1F [Compound 246b, 2-(2-(7-(3-(aminomethyl)-2-fluorophenyl)-4-fluorobenzofuran-5-carboxamido)phenyl)acetic acid]"
27,< 1000 nM,"NCc1cccc(-c2cc(COc3ccccc3CC(=O)O)cc3ccsc23)c1F [Compound 247b, 2-(2-((7-(3-(aminomethyl)-2-fluorophenyl)benzo[b]thiophen-5-yl)methoxy)phenyl)acetic acid]"
